# Results as given in patent US8183263B2 (priority 2007, dated 2012).
# Tested on: HCV replicon
# Assay: HCV replicon replication assay (NPT level by captured ELISA)
# Assay type: cell-based
# Settings: Hepatitis C virus, 72 h; Huh-7 HCV replicon-containing cells, three days incubation; read-out: Activity (inhibition of HCV replicon replication)
# Experimental: Compounds claimed herein are tested for the ability to inhibit viral replication of the Hepatitis C replicon in cultured cells in which the HCV replicon construct has been incorporated. The HCV replicon system was described by Bartenschlager, et. al (Science, 285, pp. 110-113 (1999)). The replicon system is predictive of in vivo anti-HCV activity; compounds that are active in humans uniformly evidence activity in the replicon assay.
# In this assay HCV replicon containing cells are treated with different concentrations of the test compound to ascertain the ability of the test compound to suppress replication of the HCV replicon. As a positive control, HCV replicon-containing cells are treated with different concentrations of interferon alpha, a known inhibitor of HCV replication. The replicon assay system includes Neomycin Phosphotransferase (NPT) as a component of the replicon itself in order to detect the transcription of replicon gene products in the host cell. Cells in which the HCV replicon is actively replicating have high levels of NPT; the level of NPT is proportional to HCV replication. […] The NPT level of each sample is measured using a captured ELISA.
# A protocol for testing compounds for the ability to inhibit viral replication of the Hepatitis C replicon cultured cells in which the replicon construct has been incorporated, follows.
# The HCV replicon contains, 5′-3′, the HCV-IRES, the neomycin phosphotransferase (neo) gene, the IRES of encephalomyocarditis virus, which directs translation of HCV sequences NS3 to NS5B, and the 3′-NTR. The sequence of the HCV replicon has been deposited in GenBank (Accession no. AJ242652).
# The replicon is transfected into Huh-7 cells using standard methods such as electroporation.
# The equipment and materials include, but are not limited to, Huh-7 HCV replicon-containing cells, maintenance media (DMEM (Dulbecco's modified Eagle media) supplemented with 10% FBS, L-glutamine, non-essential amino acids, penicillin (100 units/ml), streptomycin (100 micrograms/ml), and 500 micrograms/ml of Geneticin (G418), screening media (DMEM supplemented with 10% FBS, L-glutamine, non-essential amino acids, penicillin (100 units/ml) and streptomycin (100 micrograms/ml)), 96 well tissue culture plates (flat bottom), 96 well plates (U bottom for drug dilution), Interferon alpha for positive control, fixation reagent (such as methanol: acetone), primary antibody (rabbit anti-NPTII), secondary antibody: Eu—N1 1, and enhancement solution.
# HCV replicon-containing cells are rinsed with once PBS once; 2 mls of trypsin are then added. Cells are incubated at 37° C. in a 5% CO2 incubator for 3-5 minutes. 10 mls of complete medium is added to stop the reaction. Cells are blown gently, put into a 15 ml tube, and spun at 1200 rpm for four minutes. The trypsin/medium solution is removed and 5 mls of medium (500 ml DMEM (high glucose)) from BRL catalog #12430-054; 50 mls 10% FBS, 5% Geneticin G418 (50 mg/ml, BRL catalog #10131-035), 5 ml MEM non-essential amino acids (100×BRL #11140-050) and 5 ml pen-strep (BRL #15140-148) is added. The cells and media are mixed carefully
# Cells are plated with screening medium (500 ml DMEM (BRL #21063-029), 50 ml FBS (BRL #10082-147) and 5 ml MEM non-essential amino acid (BRL #11140-050) at 6000-7500 cells/100 μl/well of 96 well plate (6-7.5×10^5 cells/10 ml/plate). Plates are placed into 37° C. 5% CO2 incubator overnight.
# The following morning, drugs (test compounds or interferon alpha) are diluted in 96 well U bottom plates with media or DMSO/media, depending on the final concentration chosen for screening. Generally for 6 concentrations of each test compounds ranging from 10 micromolar to 0.03 micromolar are applied. 100 μl of the test compound dilution is placed in wells of the 96 well plate containing the HCV replicon cells. Media without drug is added to some wells as a negative controls. DMSO is known to affect cell growth. […]
row,Compound,EC50
1,CCc1ccc(Oc2ccc(Nc3nc(-c4cccnc4)cs3)cc2C(C)=O)cc1,< 1 µM
2,"CCCCCCCS(=O)(=O)CCc1ccc(Nc2nc(-c3cccnc3)cs2)cc1 [Cmp 20, N-(4-(2-(heptylsulfonyl)ethyl)phenyl)-4-(pyridin-3-yl)thiazol-2-amine]",1 to 10 µM
3,FC(F)(F)c1cc(Nc2nc(-c3cccnc3)cs2)ccc1OCCCCCc1ccccc1 [Cmp 21],< 1 µM
4,"Cc1ccccc1CCCCOc1ccc(Nc2nc(-c3cccnc3)cs2)cc1C(F)(F)F [Cmp 22, 4-(pyridin-3-yl)-N-(4-(4-o-tolylbutoxy)-3-(trifluoromethyl)phenyl)thiazol-2-amine]",< 1 µM
5,"FC(F)(F)c1cc(Nc2nc(-c3cccnc3)cs2)ccc1OCCCCc1ccc(Cl)cc1 [Cmp 23, N-(4-(4-(4-chlorophenyl)butoxy)-3-(trifluoromethyl)phenyl)-4-(pyridin-3-yl)thiazol-2-amine]",< 1 µM
6,"Fc1ccc(C#CCCOc2ccc(Nc3nc(-c4cccnc4)cs3)cc2C(F)(F)F)cc1 [Cmp 24, N-(4-(4-(4-fluorophenyl)but-3-ynyloxy)-3-(trifluoromethyl)phenyl)-4-(pyridin-3-yl)thiazol-2-amine]",< 1 µM
7,"CCCCCCCCOc1cc(Nc2nc(-c3cccnc3)cs2)ccc1C [Cmp 25, N-(4-methyl-3-(octyloxy)phenyl)-4-(pyridin-3-yl)thiazol-2-amine]",< 1 µM
8,"CCCCCOc1cc(Nc2nc(-c3cccnc3)cs2)ccc1C [Cmp 26, N-(4-methyl-3-(pentyloxy)phenyl)-4-(pyridin-3-yl)thiazol-2-amine]",< 1 µM
9,"CCCCCOc1cc(Nc2nc(-c3cccnc3)cs2)ccc1C#N [Cmp 27, 2-(pentyloxy)-4-(4-(pyridin-3-yl)thiazol-2-ylamino)benzonitrile]",< 1 µM
10,"CCCCCCCCOc1cc(Nc2nc(-c3cccnc3)c(F)s2)ccc1C [Cmp 28, 5-fluoro-N-(4-methyl-3-(octyloxy)phenyl)-4-(pyridin-3-yl)thiazol-2-amine]",< 1 µM
11,CCCCCOc1cc(Nc2nc(-c3cccnc3)c(F)s2)ccc1C [Cmp 29],< 1 µM
12,"CCCCCOc1cc(Nc2nc(-c3cccnc3)c(F)s2)ccc1C#N [Cmp 30, -(5-fluoro-4-(pyridin-3-yl)thiazol-2-ylamino)-2-(pentyloxy)benzonitrile]",< 1 µM
13,"CCCCCCCCc1ccc(Nc2nc(-c3cccnc3)c(F)s2)cc1 [Cmp 31, 5-fluoro-N-(4-octylphenyl)-4-(pyridin-3-yl)thiazol-2-amine]",< 1 µM
14,"CC/C=N/N(c1ccc(OCCCCCCCC)cc1)c1nc(-c2cccnc2)cs1 [Cmp 32, (E)-2-(1-(4-(octyloxy)phenyl)-2-propylidenehydrazinyl)-4-(pyridin-3-yl)thiazole]",< 1 µM
15,"C/C=N/N(c1ccc(OCCCCCCCC)c(C(F)(F)F)c1)c1nc(-c2cccnc2)cs1 [Cmp 33, (E)-2-(2-ethylidene-1-(4-(octyloxy)-3-(trifluoromethyl)phenyl)hydrazinyl)-4-(pyridin-3-yl)thiazole]",< 1 µM
16,"C/C=N/N(c1ccc(OCCCCCCCC)cc1)c1nc(-c2cccnc2)cs1 [Cmp 34, (E)-2-(2-ethylidene-1-(4-(octyloxy)phenyl)hydrazinyl)-4-(pyridin-3-yl)thiazole]",< 1 µM
17,"CCCCCCCCc1ccc(Nc2nc(-c3cccnc3)c(F)s2)cc1C(F)(F)F [Cmp 35, 5-fluoro-N-(4-octyl-3-(trifluoromethyl)phenyl)-4-(pyridin-3-yl)thiazol-2-amine]",< 1 µM

row,Compound,EC50
1,"CCCCCCCCc1ccc(Nc2nc(-c3cnc(OC)nc3)c(F)s2)cc1C(F)(F)F [Cmp 36, 5-fluoro-4-(2-methoxypyrimidin-5-yl)-N-(4-octyl-3-(trifluoromethyl)phenyl)thiazol-2-amine]",< 1 µM
2,"Cc1ccc(Nc2nc(-c3cccnc3)cs2)cc1OCCOc1ccccc1 [Cmp 37, N-(4-methyl-3-(2-phenoxyethoxy)phenyl)-4-(pyridin-3-yl)thiazol-2-amine]",< 1 µM
3,"Cc1ccc(Nc2nc(-c3cccnc3)cs2)cc1OCC1CCCCC1 [Cmp 38, N-(3-(cyclohexylmethoxy)-4-methylphenyl)-4-(pyridin-3-yl)thiazol-2-amine]",< 1 µM
4,"CCCCCCCCc1ccc(Nc2nc(-c3ccc[n+](O)c3)c(F)s2)cc1 [Cmp 39, 5-fluoro-N-(4-octylphenyl)-4-(pyridine-1-oxide-3-yl)thiazol-2-amine]",< 1 µM
5,"COc1ncc(-c2csc(Nc3ccc(C)c(OCCOc4ccccc4)c3)n2)cn1 [Cmp 40, 4-(2-methoxypyrimidin-5-yl)-N-(4-methyl-3-(2-phenoxyethoxy)phenyl)thiazol-2-amine]",< 1 µM
6,Cc1ccc(Nc2nc(-c3ccc(F)cc3)cs2)cc1OCCOc1ccccc1 [Cmp 41],< 1 µM
7,"Cc1ccc(Nc2nc(-c3ccc(F)cc3)cs2)cc1OCC1CCCCC1 [Cmp 42, N-(3-(cyclohexylmethoxy)-4-methylphenyl)-4-(4-fluorophenyl)thiazol-2-amine]",< 1 µM
8,"COc1ncc(-c2csc(Nc3ccc(C)c(OCC4CCCCC4)c3)n2)cn1 [Cmp 43, N-(3-(cyclohexylmethoxy)-4-methylphenyl)-4-(2-methoxypyrimidin-5-yl)thiazol-2-amine]",< 1 µM
9,"CCCCCCCCOc1ccc(N(N)c2nc(-c3cccnc3)cs2)cc1C(F)(F)F [Cmp 44, 2-(1-(4-(octyloxy)-3-(trifluoromethyl)phenyl)hydrazinyl)-4-(pyridin-3-yl)thiazolo]",< 1 µM
10,"CCCCCCCCOc1cc(Nc2nc(-c3ccc(F)cc3)cs2)ccc1C [Cmp 45, 4-(4-fluorophenyl)-N-(4-methyl-3-(octyloxy)phenyl)thiazol-2-amine]",< 1 µM
11,"CCCCCCCCOc1cc(Nc2nc(-c3cnc(OC)nc3)cs2)ccc1C [Cmp 46, 4-(2-methoxypyrimidin-5-yl)-N-(4-methyl-3-(octyloxy)phenyl)thiazol-2-amine]",< 1 µM
12,"FC(F)(F)c1cc(Nc2nc(-c3cccnc3)cs2)ccc1Oc1ccccc1 [Cmp 47, N-(4-phenoxy-3-(trifluoromethyl)phenyl)-4-(pyridin-3-yl)thiazol-2-amine]",< 1 µM
13,"N#Cc1ccc(Oc2ccc(Nc3nc(-c4cccnc4)cs3)cc2C(F)(F)F)cc1 [Cmp 48, 4-(4-(4-(pyridin-3-yl)thiazol-2-ylamino)-2-(trifluoromethyl)phenoxy)benzonitrile]",< 1 µM
14,"CCc1ccc(Oc2ccc(Nc3nc(-c4cccnc4)cs3)cc2C(F)(F)F)cc1 [Cmp 49, N-(4-(4-ethylphenoxy)-3-(trifluoromethyl)phenyl)-4-(pyridin-3-yl)thiazol-2-amine]",< 1 µM
15,"FC(F)(F)c1cc(Nc2nc(-c3cccnc3)cs2)ccc1Oc1ccc(Cl)cc1 [Cmp 50, N-(4-(4-chlorophenoxy)-3-(trifluoromethyl)phenyl)-4-(pyridin-3-yl)thiazol-2-amine]",< 1 µM
16,"COc1ncc(-c2csc(Nc3ccc(Oc4ccccc4)c(C(F)(F)F)c3)n2)cn1 [Cmp 51, 4-(2-methoxypyrimidin-5-yl)-N-(4-phenoxy-3-(trifluoromethyl)phenyl)thiazol-2-amine]",< 1 µM
17,"COc1ncc(-c2csc(Nc3ccc(Oc4ccc(C#N)cc4)c(C(F)(F)F)c3)n2)cn1 [Cmp 52, 4-(4-(4-(2-methoxypyrimidin-5-yl)thiazol-2-ylamino)-2-(trifluoromethyl)phenoxy)benzonitrile]",< 1 µM
